# In US20100183592A1, “HUMAN EPO RECEPTOR AGONISTS, COMPOSITIONS, METHODS AND USES FOR PREVENTING OR TREATING GLUCOSE INTOLERANCE RELATED CONDITIONS” (priority 2006, published 2010):
# Where no end group is shown, it is not given here.
# Experiments:
# EPO receptor = target: T1, EPO receptor (Homo sapiens, UniProt P19235); assay: competition with 125I-labeled EPO for binding to the EPO receptor
# T1 sequence (P19235 25-508): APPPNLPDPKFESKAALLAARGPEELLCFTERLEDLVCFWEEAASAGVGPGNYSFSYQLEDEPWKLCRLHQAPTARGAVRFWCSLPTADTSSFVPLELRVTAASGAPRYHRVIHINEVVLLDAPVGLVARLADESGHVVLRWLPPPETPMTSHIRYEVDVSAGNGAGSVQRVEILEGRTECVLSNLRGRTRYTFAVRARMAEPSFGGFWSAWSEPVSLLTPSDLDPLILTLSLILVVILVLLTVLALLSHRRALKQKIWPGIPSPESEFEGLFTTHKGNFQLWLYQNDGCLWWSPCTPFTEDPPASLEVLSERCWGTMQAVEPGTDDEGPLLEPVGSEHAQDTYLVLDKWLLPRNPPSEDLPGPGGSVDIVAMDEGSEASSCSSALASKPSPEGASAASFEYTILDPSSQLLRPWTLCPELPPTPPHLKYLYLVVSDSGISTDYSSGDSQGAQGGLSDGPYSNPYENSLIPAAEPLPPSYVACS
# [1] = 50% serum; cited from earlier work
# [2] = in vivo; cited from earlier work
# [3] = test system: patients with baseline HbA1C 6.0 or higher; assay: datamining of clinical data (GE Clinical Data Services EMR database), patients prescribed EPO; assay type: in vivo, human; conditions: for magnitude of HbA1C decline: first 3 months after EPO; for fasting blood glucose after EPO: end of time course
# From the text: GE Healthcare's Clinical Data Services database contains de-identified, normalized, longitudinal, patient-level Electronic Medical Record data from nearly to 4,000 US based physicians practicing in ambulatory setting who use GE Centricity EMR system. This database contains data on >4.7M patient lives. Average follow up time is approximately 3 years. The database contains information on Patient demographics, medical history, visit type, clinical observations (including Diagnosis codes), laboratory test results and medications prescribed. JNJ has purchased a license to this dataset and mined it to look for outcomes on diabetic parameters in patients who were prescribed EPO for anemia.
# Population was further filtered to identify patients with Pre-EPO measurements followed by post-EPO measurements on the following variables of interest • Blood glucose, fasting • Hemoglobin A1c as % of total hemoglobin • Hemoglobin, blood • Hematocrit, blood
# Patients with at least 1 pre- (up to 60 days prior) and 1 post- (up to 6 months after) EPO treatment measurements were considered for analysis. Number of patients meeting this criterion varied in numbers for different variables and time zones. Patients who were on EPO medication and also had mean HbA1c value of 6.0 or higher were considered as diabetic.
# DIO mice [4] = assay: IPGTT in DIO (diet induced obese) mice; assay type: in vivo; conditions: 5 days after dosing
# Protocol: (§1) The experiment described in Example 1 was repeated in DIO (diet induced obese) mice following dosing of CNTO 530 (0.3 mg/kg). This murine model is believed to be more representative of the human disease since the mice become diabetic after being fed a high fat diet (Purina TestDiet #58126 consisting of 60.9% kcal fat and 20.8% kcal carbohydrates). As described in Example 1, an IPGTT was done on the day of dosing and seven days after dosing. The time points during the IPGTT were 15, 30, 60, 90, 120, 150, and 180 minutes after glucose challenge. After the IPGTT was completed on day 7, the mice were sacrificed and whole blood (in EDTA) was collected via cardiac puncture for hematology studies.
# (§2) Mice (DIO; n=7) were fasted overnight and fasting blood glucose (FBG) was measured. The animals were randomized based upon FBG. The mice were dosed intravenously with CNTO 530 (0.3 mg/kg) and given glucose intraperitonealy (0.5 mg/g) ten minutes later. Blood glucose was measured at various times (10, 20, 30, 60, 90, 120, 150, 180 minutes after glucose). The IPGTTs were repeated 7, 14, 21, 28, and 35 days after that initial single dose. […]
# (§3) Mice (DIO; n=7) were fasted overnight and fasting blood glucose (FBG) was measured. […]
# as §3
# [5] = cited from earlier work
# DIO mice [6] = assay: hematology (hemoglobin, reticulocytes) in DIO mice; assay type: in vivo; conditions: DIO mice, 0.03, 0.1, 0.3 mg/kg i.v., five days after dosing
# Protocol: as §1, §2, §3, §3
# DIO mice [7] = assay: fasting blood glucose in DIO mice; assay type: in vivo; conditions: DIO mice, 0.03, 0.1, 0.3 mg/kg i.v., 5 days after dosing
# Protocol: (§4) Mice (DIO; n=7) were fasted overnight and fasting blood glucose (FBG) was measured. The animals were randomized based upon FBG and dosed intravenously with EPO (0.03, 0.1, 0.3 mg/kg). An IPGTT (as described above) was done 5 days after dosing. The animals were sacrificed after the IPGTT and whole blood was collected for hematology measurements.
# as §4, with “darbepoetin (0.01, 0.03, 0.1” for “EPO (0.03, 0.1, 0.3”, “7” for “5”
# [8] = test system: patients with end-stage renal disease; conditions: cited from earlier work
# [9] = test system: EPO dependent UT-7/EPO cell line; assay: in vitro bioactivity assay: viability of rHuEPO-starved UT-7/EPO cells (MTS); assay type: cell-based, human; conditions: for activity compared with rHuEPO: in vitro cell proliferation assay
# Protocol: The activity of EMP-Hinge core mimetibody was first tested in an in vitro bioactivity assay. For this assay, the EPO dependent UT-7/EPO cell line, derived from a patient with acute megakaryoblastic leukemia, was used (Komatsu et al., 1993, Blood, vol. 82 (2), 456-464). These cells undergo programmed cell death 48 to 72 hours after withdraw from media supplemented with rHuEPO. Cells that have been incubated in the absence of rHuEPO for 24 hours can be saved if treated with rHuEPO or an EPOR agonist. EMP-Hinge core mimetibody was added to cells starved without rHuEPO and cell viability was determined 48 hours after treatment using the tetrazolium compound MTS (CellTiter 96 Aqueous One Solution, Promega) that is metabolized by living cells to yield a product with an absorbance that can be measured. […] In addition, these same cells were stimulated with EMP-Hinge core mimetibody and tyrosine phosphorylation patterns visualized by running cell lysate through a polyacrylamide gel.
# [10] = test system: cells that express the EPO receptor; assay: complement lysis of cells that express the EPO receptor; assay type: cell-based; conditions: preliminary studies
# From the text: It has been shown that mutation of two […] (L) residues, L234 & L235, in the IgG1 lower hinge region to alanine (A) will abrogate the ability of the immunoglobulin to mediate complement dependent cytotoxicity (CDC) and antibody dependant cellular cytotoxicity (ADCC) (Hezereh et al., 2001, J. Virol., vol. 75 (24), 12161-68). […] This may be due to the low number of receptors that are found on erythroid progenitor cells. In addition the in vivo expansion of erythroid progenitors as evidenced by significant increases in hematocrit supports the possible functional irrelevance of immune effector functions. However, while no effector function associated affects have been observed, there remains an interest in introducing these mutations as a precautionary step.
# normal mice = assay: effects on erythropoiesis (hematocrit) in normal mice; assay type: in vivo; conditions: dosed equally / equal activity units
# From the text: (§5) In vivo studies were done in normal mice to compare the half-life of EMP-Hinge core mimetibody to that of rHuEPO and to compare their effects on erythropoiesis.
# [11] = serum concentrations by ELISA, half-life in normal mice; assay type: in vivo
# Protocol: as §5
# The serum concentrations of both rHuEPO and EMP-Hinge core mimetibody were measured by ELISA.
# [12] = baseline HbA1C 7%-8% (7.38%), first month
# [13] = baseline HbA1C 8%-9% (8.35%), first month
# [14] = baseline HbA1C >9% (10.18), first month
# [15] = longitudinal patients, baseline under 126 mg/dL (102 mg/dL)
# [16] = UT-7/EPO cells, viability 48 hours after treatment
# [17] = listed as EMP-hinge core mimetibody
substance,measurement,setting,value
EMP-1: 20 amino acid peptide with no sequence homology to HuEPO that activates the EPO receptor as a dimer (GGTYSCHFGPLTWVCKPQGG),competition with 125I-labeled EPO for binding to the EPO receptor,EPO receptor,competes
same,ex-vivo half-life,[1],8 h
CERA: Roche's pegylated epoetin,half-life compared with epoetin / EPO,[2],longer half life
"EPO: glycoprotein hormone of 165 amino acids and four carbohydrate chains, primary regulator of erythropoiesis",decline in HbA1C level,[3]; baseline HbA1C 6.0%-7.0%,no decline
same,HbA1C level after EPO,[3]; [12],6.99%
same,decline in HbA1C level,[3]; [12],0.39%
same,HbA1C level after EPO,[3]; [13],7.51%
same,decline in HbA1C level,[3]; [13],0.84%
same,HbA1C level after EPO,[3]; [14],8.49%
same,decline in HbA1C level,[3]; [14],approximately 1.69%
same,HbA1C level after EPO,"[3]; longitudinal dataset, baseline HbA1C 7-8% (7.47%), first 3 months",7.01%
same,magnitude of HbA1C decline,"[3]; longitudinal dataset, baseline HbA1C 7-8% (7.47%)",0.46%
same,further HbA1C change,"[3]; longitudinal dataset, baseline HbA1C 7-8%, next 3 months",no significant further change
same,HbA1C level after EPO,"[3]; longitudinal dataset, baseline HbA1C >8 (9.41%), first 3 months",8.46%
same,magnitude of HbA1C decline,"[3]; longitudinal dataset, baseline HbA1C >8 (9.41%)",0.95%
same,further HbA1C change,"[3]; longitudinal dataset, baseline HbA1C >8, next 3 month period",no further decline
same,fasting blood glucose after EPO,"[3]; longitudinal patients, baseline FBG>126 mg/dL (173 mg/dL)",145 mg/dL
same,"decline in fasting blood glucose, average","[3]; longitudinal patients, baseline FBG>126 mg/dL (173 mg/dL), entire time course",28 mg/dL
same,decline in FBG level,"[3]; longitudinal patients, baseline under 126 mg/dL",do not show any decline
same,increase in FBG at the end of the time course,[3]; [15],5 mg/dL
same,fasting blood glucose after EPO,[3]; [15],107 mg/dL
same,"HbA1C level drop, average","[3]; patients with baseline HbA1C above 6.0, first month after EPO administration",0.5%
same,decrease in fasting blood glucose concentration,"[3]; patients with baseline HbA1C above 6.0, maximum decline over a 4 month period",approximately 30 mg.dL
same,improvement in hemoglobin,"[3]; patients, clinical data",< 1%
same,Hemoglobin level,"[3]; patients, over a 3 month period after initial EPO administration, then plateau",increases steadily
same,glucose tolerance (IPGTT),DIO mice [4]; 0.03 mg/kg i.v.,modest improvement
same,glucose tolerance (IPGTT),DIO mice [4]; 0.3 mg/kg i.v.,modest improvement
same,time to peak serum levels,[5]; subcutaneous administration,5 to 24 h
same,time detectable plasma levels are maintained,[5]; within the therapeutic dose range,at least 24 hours
same,hemoglobin,DIO mice [6],not significantly elevated
same,reticulocytes,DIO mice [6],significantly increased in a dose dependent manner
same,fasting blood glucose,DIO mice [7],no statistically significant reduction
same,"blood triglyceride, total cholesterol and LDL levels",[8],concomitant improvement
same,insulin resistance,[8],improve insulin resistance
"EMP-Hinge core mimetibody: V-EMP-1-linker-hinge core-CH2-CH3 construct of IgG1 or IgG4 subclass, SEQ ID NOS: 82-89 (QIQGGTYSCHFGPLTWVCKPQGG; cysteine pairing not given here; also: fused via linker to hinge core-CH2-CH3 of IgG1 or IgG4)","potency on a molar basis, fold greater than the EMP-1 peptide",[9]; [16],500 fold
same,"potency on a molar basis, fold less than rHuEPO",[9]; [16],5 fold
same,"potency on a molar basis, fold greater than the EMP-1 peptide","[9]; UT-7/EPO cells, viability 48 hours after treatment, listed as EMP-hinge core mimetibody",more than 500 fold
same,activity compared with rHuEPO,[9],in the range of rHuEPO
same,activity compared with rHuEPO,[9]; [17],substantially similar to recombinant HuEPO
same,complement lysis,[10],does not mediate complement lysis
same,duration of response compared to rHuEPO,normal mice,prolonged
same,maximal response (hematocrit) compared to rHuEPO,normal mice,higher maximal response
same,duration of response compared to rHuEPO,normal mice; [17],maintained for a longer period
same,maximal response (hematocrit) compared to rHuEPO,normal mice; [17],significantly higher maximal hematocrit
same,approximate half-life relative to rHuEPO,[11],at least several times that of rHuEPO
